Measured values: DBAASP
Converted amounts (≈) assume the structure as drawn.

Assays:
Test in all cases: ≥ marks a high value that may be exact or a test limit, other limits are often not marked, values filed in µg/mL are converted to µM
[1] = test system: Escherichia coli ATCC 2592
[2] = test system: Staphylococcus aureus ATCC 33591
[3] = test system: Pseudomonas aeruginosa ATCC 10145
[4] = test system: Candida albicans ATCC 10231
[5] = test system: Cryptococcus neoformans ATCC 32045
Streptococcus sanguinis = test system: Streptococcus sanguinis
Staphylococcus aureus = test system: Staphylococcus aureus
[6] = test system: Escherichia coli CIP 54.8T
[7] = test system: Aeromonas salmonicida CIP 103209T
[8] = test system: Salmonella typhimurium CIP 103446
[9] = test system: Enterococcus faecalis CIP 76.117
[10] = test system: Staphylococcus aureus CIP 53.156
[11] = test system: Bacillus megaterium CIP 51.17
[12] = test system: Listeria monocytogenes CIP 110871
[13] = test system: Salmonella enterica subsp. enterica serovar Pullorum C79-13
[14] = test system: Salmonella enterica subsp. enterica serovar Typhimurium ATCC 14028
[15] = test system: Pseudomonas aeruginosa CICC 21625
Klebsiella pneumoniae = test system: Klebsiella pneumoniae
[16] = test system: Pseudomonas aeruginosa PAO1
[17] = test system: Salmonella enterica subsp. enterica serovar Typhimurium C77-31
[18] = test system: Escherichia coli ATCC 25922
Escherichia coli UB1005 = test system: Escherichia coli UB1005
Escherichia coli = test system: Escherichia coli
[19] = test system: Pseudomonas aeruginosa CICC 21630
[20] = test system: Pseudomonas aeruginosa ATCC 27853
Pseudomonas aeruginosa = test system: Pseudomonas aeruginosa
Escherichia coli K88 = test system: Escherichia coli K88
Escherichia coli K99 = test system: Escherichia coli K99
Acinetobacter baumannii = test system: Acinetobacter baumannii
[21] = test system: Candida parapsilosis CGMCC 2.3989
[22] = test system: Staphylococcus aureus ATCC 25923
[23] = test system: Staphylococcus aureus ATCC 43300
[24] = test system: Candida tropicalis CGMCC 2.1975
[25] = test system: Staphylococcus aureus ATCC 29213
[26] = test system: Enterococcus faecalis ATCC 29212
[27] = test system: Staphylococcus epidermidis ATCC 12228
[28] = test system: Salmonella enterica subsp. enterica serovar Choleraesuis CVCC 503
Candida albicans = test system: Candida albicans
[29] = test system: Listeria monocytogenes EGD

**Q.** Which results are given for `C[C@H](NC(=O)[C@H](Cc1ccccc1)NC(=O)[C@H](CCCCN)NC(=O)[C@H](CCCCN)NC(=O)[C@H](C)NC(=O)[C@H](Cc1ccccc1)NC(=O)[C@H](CCCCN)NC(=O)[C@H](CCCCN)NC(=O)[C@H](C)NC(=O)[C@H](Cc1ccccc1)NC(=O)[C@H](CCCCN)NC(=O)[C@H](CCCCN)NC(=O)[C@H](C)NC(=O)[C@H](Cc1ccccc1)NC(=O)[C@H](CCCCN)NC(=O)[C@H](CCCCN)NC(=O)[C@H](C)NC(=O)[C@H](Cc1ccccc1)NC(=O)[C@H](CCCCN)NC(=O)[C@H](CCCCN)NC(=O)[C@H](C)NC(=O)[C@@H](N)Cc1ccccc1)C(=O)N[C@@H](CCCCN)C(=O)N[C@@H](CCCCN)C(=O)O` [FAKKFAKKFAKKFAKKFAKKFAKK]?
**A.** MIC [1]: 8.14 µM (≈ 23.3 µg/mL); MIC [2]: ≥ 87.2 µM; MIC [3]: 21.6 µM (≈ 62 µg/mL); MIC [4]: 61.7 µM (≈ 177 µg/mL); MIC [5]: 7.9 µM (≈ 22.6 µg/mL)

**Q.** With `NC(=O)[C@H](Cc1ccccc1)NC(=O)[C@H](Cc1ccccc1)NC(=O)[C@H](Cc1ccccc1)NC(=O)[C@H](Cc1ccccc1)NC(=O)[C@H](Cc1ccccc1)NC(=O)[C@H](Cc1ccccc1)NC(=O)[C@@H](N)Cc1ccccc1` [FFFFFFF] as the compound, how does the MIC (Streptococcus sanguinis) read?
**A.** 3.3 µM (≈ 3.46 µg/mL)

**Q.** What about the MIC (Staphylococcus aureus) of the same compound?
**A.** 3.3 µM (≈ 3.46 µg/mL)

**Q.** With `C[C@H](NC(=O)[C@H](CCCCN)NC(=O)[C@H](Cc1ccccc1)NC(=O)[C@H](C)NC(=O)[C@H](CCCCN)NC(=O)[C@H](Cc1ccccc1)NC(=O)[C@H](C)NC(=O)[C@H](CCCCN)NC(=O)[C@H](Cc1ccccc1)NC(=O)[C@H](C)NC(=O)[C@H](CCCCN)NC(=O)[C@H](Cc1ccccc1)NC(=O)[C@H](C)NC(=O)[C@H](CCCCN)NC(=O)[C@H](Cc1ccccc1)NC(=O)[C@H](C)NC(=O)[C@H](CCCCN)NC(=O)[C@H](Cc1ccccc1)NC(=O)[C@H](C)NC(=O)[C@H](CCCCN)NC(=O)[C@H](Cc1ccccc1)NC(=O)[C@H](C)NC(=O)[C@H](CCCCN)NC(=O)[C@@H](N)Cc1ccccc1)C(=O)O` [FKAFKAFKAFKAFKAFKAFKAFKA] as the compound, how does the MIC [1] read?
**A.** 8.11 µM (≈ 22.6 µg/mL)

**Q.** And the MIC [2]?
**A.** ≥ 179 µM

**Q.** What about the MIC [3] of the same compound?
**A.** 8.96 µM (≈ 25 µg/mL)

**Q.** What about the MIC [4] of the same compound?
**A.** 127 µM (≈ 354 µg/mL)

**Q.** And the MIC [5]?
**A.** 8.11 µM (≈ 22.6 µg/mL)

**Q.** How did the MIC [6] turn out when `CC[C@H](C)[C@H](NC(=O)[C@H](CC(C)C)NC(=O)[C@H](Cc1cnc[nH]1)NC(=O)[C@H](Cc1ccccc1)NC(=O)[C@H](CO)NC(=O)[C@@H](NC(=O)[C@H](CO)NC(=O)CN)[C@@H](C)O)C(=O)N[C@@H](Cc1ccc(O)cc1)C(=O)N[C@@H](CC(N)=O)C(=O)N[C@@H](CCCCN)C(=O)N[C@@H](Cc1c[nH]c2ccccc12)C(=O)N[C@@H](Cc1ccccc1)C(=O)N[C@@H](C)C(=O)N[C@H](C(=O)N[C@@H](CCCCN)C(=O)N[C@@H](CCCN=C(N)N)C(=O)N[C@@H](CCCN=C(N)N)C(=O)N[C@@H](CCCN=C(N)N)C(=O)N[C@@H](CCCCN)C(=O)N[C@@H](CCCN=C(N)N)C(=O)O)C(C)C` [GSTSFHLIYNKWFAVKRRRKR] was run?
**A.** 3.16 µM (≈ 8.38 µg/mL)

**Q.** What about the MIC [7] of the same compound?
**A.** 5 µM (≈ 13.3 µg/mL)

**Q.** And the MIC [8]?
**A.** ≥ 50 µM

**Q.** What about the MIC [9] of the same compound?
**A.** ≥ 86.6 µM

**Q.** And the MIC [10]?
**A.** 5.1 µM (≈ 13.5 µg/mL)

**Q.** And the MIC [11]?
**A.** 3.16 µM (≈ 8.38 µg/mL)

**Q.** And the MIC [12]?
**A.** ≥ 35.4 µM

**Q.** What does the source list for `CC[C@H](C)[C@H](N)C(=O)N[C@@H](CCCCN)C(=O)N1CCC[C@H]1C(=O)N[C@H](C(=O)N[C@H](C(=O)N[C@@H](CCCCN)C(=O)N1CCC[C@H]1C(=O)N[C@H](C(=O)N[C@H](C(=O)N[C@@H](CCCCN)C(=O)N1CCC[C@H]1C(=O)N[C@H](C(=O)N[C@H](C(=O)N[C@@H](CCCCN)C(=O)N1CCC[C@H]1C(=O)N[C@H](C(N)=O)[C@@H](C)CC)[C@@H](C)CC)[C@@H](C)CC)[C@@H](C)CC)[C@@H](C)CC)[C@@H](C)CC)[C@@H](C)CC` [IKPIIKPIIKPIIKPI]?
**A.** MIC [13]: ≥ 64 µM; MIC [14]: > 64 µM; MIC [15]: ≥ 64 µM; MIC (Klebsiella pneumoniae): > 64 µM; MIC [16]: > 64 µM; MIC [17]: ≥ 64 µM; MIC [18]: > 64 µM; MIC (Escherichia coli UB1005): ≥ 64 µM; MIC (Escherichia coli): > 64 µM; MIC [19]: ≥ 64 µM; MIC [20]: > 64 µM; MIC (Pseudomonas aeruginosa): > 64 µM; MIC (Escherichia coli K88): ≥ 64 µM; MIC (Escherichia coli K99): ≥ 64 µM; MIC (Acinetobacter baumannii): ≥ 64 µM

**Q.** For `CC(C)C[C@H](N)C(=O)N[C@@H](Cc1ccccc1)C(=O)N[C@@H](Cc1ccccc1)C(=O)N[C@@H](Cc1ccccc1)C(=O)N[C@@H](Cc1ccccc1)C(=O)N[C@@H](Cc1ccccc1)C(N)=O` [LFFFFF], which MIC (Streptococcus sanguinis) is on record?
**A.** ≥ 32.6 µM

**Q.** And the MIC (Staphylococcus aureus)?
**A.** 29.4 µM (≈ 25.5 µg/mL)

**Q.** How did the MIC [21] turn out when `CC(C)C[C@H](NC(=O)[C@H](CCCN=C(N)N)NC(=O)[C@H](C)NC(=O)[C@H](CS)NC(=O)[C@H](CC(C)C)NC(=O)[C@H](CCCCN)NC(=O)[C@H](CCCCN)NC(=O)[C@H](CC(C)C)NC(=O)[C@H](CCCN=C(N)N)NC(=O)[C@H](C)NC(=O)[C@H](CS)NC(=O)[C@H](CC(C)C)NC(=O)[C@H](CCCCN)NC(=O)[C@H](CCCCN)NC(=O)[C@H](CC(C)C)NC(=O)[C@H](CCCN=C(N)N)NC(=O)[C@H](C)NC(=O)[C@H](CS)NC(=O)[C@H](CC(C)C)NC(=O)[C@H](CCCCN)NC(=O)[C@H](CCCCN)NC(=O)[C@@H](N)CC(C)C)C(=O)N[C@@H](CCCCN)C(=O)N[C@@H](CCCCN)C(=O)N[C@@H](CC(C)C)C(=O)N[C@@H](CS)C(=O)N[C@@H](C)C(=O)N[C@@H](CCCN=C(N)N)C(N)=O` [LKKLCARLKKLCARLKKLCARLKKLCAR] was run?
**A.** 4 µM (≈ 13.1 µg/mL)

**Q.** And the MIC [22]?
**A.** > 64 µM

**Q.** What about the MIC [23] of the same compound?
**A.** > 64 µM

**Q.** What about the MIC [14] of the same compound?
**A.** > 64 µM

**Q.** And the MIC [16]?
**A.** > 64 µM

**Q.** What about the MIC [17] of the same compound?
**A.** ≥ 64 µM

**Q.** And the MIC [24]?
**A.** 2 µM (≈ 6.54 µg/mL)

**Q.** And the MIC [25]?
**A.** > 64 µM

**Q.** What about the MIC [26] of the same compound?
**A.** > 64 µM

**Q.** What about the MIC (Escherichia coli UB1005) of the same compound?
**A.** 2 µM (≈ 6.54 µg/mL)

**Q.** And the MIC [20]?
**A.** > 64 µM

**Q.** And the MIC [27]?
**A.** > 64 µM

**Q.** What about the MIC [28] of the same compound?
**A.** ≥ 64 µM

**Q.** What about the MIC (Candida albicans) of the same compound?
**A.** 5.66 µM (≈ 18.5 µg/mL)

**Q.** How did the MIC [22] turn out when `CC(C)C[C@H](NC(=O)[C@H](CC(C)C)NC(=O)[C@H](CCC(N)=O)NC(=O)[C@H](CCCCN)NC(=O)[C@H](CC(C)C)NC(=O)[C@H](CCCCN)NC(=O)[C@H](CCCCN)NC(=O)[C@@H](N)CC(C)C)C(=O)NCC(=O)N[C@@H](CCCCN)C(=O)N[C@@H](CC(C)C)C(=O)N[C@@H](CO)C(=O)N[C@@H](CCC(=O)O)C(=O)N[C@@H](Cc1ccccc1)C(=O)N[C@@H](C)C(=O)N[C@@H](C)C(=O)N[C@@H](C)C(=O)N[C@@H](Cc1ccccc1)C(=O)N[C@H](C(=O)N[C@@H](C)C(N)=O)C(C)C` [LKKLKQLLGKLSEFAAAFVA] was run?
**A.** 32 µM (≈ 69.6 µg/mL)

**Q.** What about the MIC [29] of the same compound?
**A.** 8 µM (≈ 17.4 µg/mL)

**Q.** And the MIC [18]?
**A.** 32 µM (≈ 69.6 µg/mL)

**Q.** And the MIC [20]?
**A.** 16 µM (≈ 34.8 µg/mL)
